These results are taken from PMC11864979, “First-in-class ultralong-target-residence-time p38α inhibitors as a mitosis-targeted therapy for colorectal cancer” (Nature Cancer, 2025).

In data set [1] the target is T1, 340 wild-type kinases (Homo sapiens, UniProt Q8NG66).
T1 construct: purchased Reaction Biology Europe
T1 sequence (Q8NG66 1-645): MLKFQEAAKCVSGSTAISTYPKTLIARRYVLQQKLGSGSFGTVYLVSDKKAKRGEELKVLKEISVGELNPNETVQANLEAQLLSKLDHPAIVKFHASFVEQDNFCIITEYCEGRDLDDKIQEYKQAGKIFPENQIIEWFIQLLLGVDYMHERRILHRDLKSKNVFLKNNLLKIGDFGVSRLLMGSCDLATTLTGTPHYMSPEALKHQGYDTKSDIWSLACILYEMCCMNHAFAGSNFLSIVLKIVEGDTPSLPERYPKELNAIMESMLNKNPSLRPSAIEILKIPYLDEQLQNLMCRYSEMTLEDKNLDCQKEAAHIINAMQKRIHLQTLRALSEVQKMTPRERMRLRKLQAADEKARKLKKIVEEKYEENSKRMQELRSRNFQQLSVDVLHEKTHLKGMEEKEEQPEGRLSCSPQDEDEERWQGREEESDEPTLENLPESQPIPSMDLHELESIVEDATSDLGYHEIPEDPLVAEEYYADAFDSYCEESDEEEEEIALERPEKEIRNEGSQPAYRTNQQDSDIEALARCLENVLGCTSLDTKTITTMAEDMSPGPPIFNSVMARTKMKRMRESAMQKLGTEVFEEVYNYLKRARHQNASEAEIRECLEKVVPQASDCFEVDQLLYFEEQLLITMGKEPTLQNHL
Nature of the data set: selectivity profiling in a panel of 340 wild-type kinases (Reaction Biology Europe). It is filed as binding. Particulars: 0.2 µM 2015; read-out: NEK11 residual activity. An excerpt: (§1) Potential interactions between 2015 and 340 wild-type kinases were checked by means of a competition binding assay performed by Reaction Biology Europe (Supplementary Table 15).

Data set [2] concerns the target T2, 340 wild-type kinases (Homo sapiens, UniProt Q9HAZ1).
T2 construct: purchased Reaction Biology Europe
The data set is described as above. It is filed as binding. Particulars: 1 µM 2015; read-out: CLK4 residual activity.
Description: as §1

Data set [3] addresses T3, recombinant human active p38α protein, MK2 and Wee1 (Homo sapiens, UniProt Q16539).
T3 construct: purchased Abcam (p38α, MK2); Novus Biologicals (Wee1) ab271647; ab79910; H00007465-P01
Put plainly: p38α–Wee1 kinase assay (western blot). Particulars: 1 µM. It is filed as biochemical. Here is the method:
Briefly, 200 ng of corresponding proteins were preincubated with 1 µM 2015 or DMSO in a kinase assay buffer (Abcam, ab189135; total volume, 100 µL) for 30 min at 37 °C. Kinase activity was induced with 20 µM ATP. Following a 30-min incubation at 37 °C, the reaction was stopped by protein inactivation (95 °C, 5 min in Laemmli buffer). The antibodies and dilutions for immunoblotting are listed in the Nature Portfolio Reporting Summary.
A general note: Immunoblotting shows a protein as a band on a membrane.

Data set [4] in a line: cell viability in healthy human colon organoids SCC321. It is filed as cell-based. Particulars: male, human, replicates. Here is the method:
(§2) Primary tumor material was chopped, washed in ice-cold medium and transferred into basic medium (Supplementary Table 17), supplemented with 2.5 mg ml^−1 collagenase II (Thermo Fisher Scientific), 2.5 mg ml^−1 collagenase XI (Sigma-Aldrich), 1 mg ml^−1 Dispase II (Sigma-Aldrich), 100 µg ml^−1 DNase I and 10.5 µM Y-27632 dihydrochloride (Invitrogen). Tumor digestion was performed at 37 °C and stopped by adding medium containing 10% FBS. The mixture was centrifuged for 5 min at 300g. Red blood cells were removed with ACK lysing buffer (Thermo Fisher Scientific; 5 min at room temperature) and the pellet was resuspended in medium. Approximately 1,000 cells were resuspended and plated in 50 µl of Cultrex RGF BME, type 2 (R&D Systems). The ascites material was pelleted by centrifugation at 300g and washed three times with ice-cold PBS. Human CRC organoids were cultured in human CRC medium (Supplementary Table 17) at 37 °C and 7% CO2. Within the first week, the medium was supplemented with 10.5 µM Y-27632 dihydrochloride (Invitrogen). The human colon organoids (SCC311 and SCC321) were purchased from Sigma-Aldrich and cultured in human colon medium (Supplementary Table 17) at 37 °C and 7% CO2. They were derived from participants with the following sex and age: […].
(§3) For in vitro treatment studies, organoids were mechanically dissociated and digested using TrypLE supplemented with 100 µg ml^−1 DNaseI and 10.5 µM Y-27632 dihydrochloride (Invitrogen) at 37 °C. A total of 1,000–2,000 single cells were plated per well in white 96-well plates (Greiner) in culture medium containing 10% GFR Matrigel or Cultrex BME. The treatment with doxycycline (5 µg ml^−1), pharmacological inhibitors or corresponding volumes of DMSO was started 24 h after plating. Doxycycline was obtained from Sigma-Aldrich. […] Cell viability was measured by means of CellTiter-Glo 3D or CellTiter-Glo 2.0 reagent (Promega) according to the manufacturers’ instructions and the Infinite M Plex reader (Tecan, i-control version 3.9.1 software). Results were normalized to vehicle (DMSO) or to shNC. For cell-doubling assays, the cell number was quantified at the corresponding time points using Guava EasyCyte flow cytometer (Luminex, CytoSoft v5.2 software).

Data set [5] concerns SCC321 human colon organoids. The data set is described as above. It is filed as cell-based. Particulars: for Cell viability (%): ED Fig. 10g, replicates. As to the method: as §2, §3
In data set [6] the target is T4, 340 wild-type kinases (Homo sapiens, UniProt Q02750).
T4 construct: purchased Reaction Biology Europe
Put plainly: selectivity profiling in a panel of 340 wild-type kinases (Reaction Biology Europe). Type of data set: binding.

Data set [7] addresses T5, 340 wild-type kinases (Homo sapiens, UniProt Q9UQM7).
T5 construct: purchased Reaction Biology Europe
The data set is described as above. It is filed as binding.

Structures are written as SMILES. Where “and” joins values, the source holds several entries; their conditions need not be identical. Equal values may be shown once. Read-outs that look alike come from different tables or passages of the source.

T4 sequence (Q02750 whole entry): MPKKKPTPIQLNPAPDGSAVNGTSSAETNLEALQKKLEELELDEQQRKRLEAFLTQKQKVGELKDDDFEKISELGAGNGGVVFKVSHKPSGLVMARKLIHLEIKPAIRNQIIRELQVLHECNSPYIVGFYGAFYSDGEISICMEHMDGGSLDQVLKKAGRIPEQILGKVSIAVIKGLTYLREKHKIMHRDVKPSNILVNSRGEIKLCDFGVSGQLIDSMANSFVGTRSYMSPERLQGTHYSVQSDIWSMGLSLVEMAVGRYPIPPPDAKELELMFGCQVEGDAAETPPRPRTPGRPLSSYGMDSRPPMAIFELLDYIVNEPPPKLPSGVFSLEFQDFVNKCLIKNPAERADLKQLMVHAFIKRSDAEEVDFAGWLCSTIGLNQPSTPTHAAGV
T5 sequence (Q9UQM7 whole entry): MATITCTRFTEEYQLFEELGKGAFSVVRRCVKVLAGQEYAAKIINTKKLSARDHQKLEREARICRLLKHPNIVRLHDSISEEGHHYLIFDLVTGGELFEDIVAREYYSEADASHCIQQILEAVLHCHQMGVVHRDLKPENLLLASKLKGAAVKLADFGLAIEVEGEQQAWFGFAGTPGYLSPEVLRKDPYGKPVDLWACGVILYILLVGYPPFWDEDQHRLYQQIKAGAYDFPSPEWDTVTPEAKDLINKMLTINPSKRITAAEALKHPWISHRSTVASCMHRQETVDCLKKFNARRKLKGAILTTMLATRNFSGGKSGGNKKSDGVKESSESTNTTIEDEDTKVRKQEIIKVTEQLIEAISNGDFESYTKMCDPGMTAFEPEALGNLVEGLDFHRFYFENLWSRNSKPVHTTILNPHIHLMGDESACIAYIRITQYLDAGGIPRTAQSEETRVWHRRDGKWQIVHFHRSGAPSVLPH
T3 sequence (Q16539 whole entry): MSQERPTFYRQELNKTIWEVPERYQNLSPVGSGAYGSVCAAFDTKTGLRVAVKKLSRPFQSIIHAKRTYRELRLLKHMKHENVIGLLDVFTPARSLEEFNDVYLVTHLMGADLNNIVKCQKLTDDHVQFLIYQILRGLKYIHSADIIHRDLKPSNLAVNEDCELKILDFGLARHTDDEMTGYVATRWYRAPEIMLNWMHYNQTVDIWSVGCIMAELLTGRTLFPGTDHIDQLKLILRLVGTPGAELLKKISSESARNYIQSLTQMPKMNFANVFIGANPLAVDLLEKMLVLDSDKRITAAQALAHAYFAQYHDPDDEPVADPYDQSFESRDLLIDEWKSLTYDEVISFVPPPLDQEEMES
T2 sequence (Q9HAZ1 whole entry): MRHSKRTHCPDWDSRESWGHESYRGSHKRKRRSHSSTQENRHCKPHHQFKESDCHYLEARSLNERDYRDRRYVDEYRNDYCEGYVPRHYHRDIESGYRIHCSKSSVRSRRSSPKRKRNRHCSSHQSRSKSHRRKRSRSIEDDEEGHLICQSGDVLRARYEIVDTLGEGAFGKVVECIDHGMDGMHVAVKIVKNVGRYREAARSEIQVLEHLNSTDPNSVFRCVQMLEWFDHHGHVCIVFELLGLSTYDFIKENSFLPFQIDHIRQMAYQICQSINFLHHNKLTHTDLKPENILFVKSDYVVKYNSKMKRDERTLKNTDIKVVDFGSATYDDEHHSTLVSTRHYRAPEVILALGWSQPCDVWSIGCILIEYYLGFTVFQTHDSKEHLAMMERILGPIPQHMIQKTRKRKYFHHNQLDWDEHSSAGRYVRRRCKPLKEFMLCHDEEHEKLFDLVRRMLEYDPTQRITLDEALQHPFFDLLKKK

Usually viability stands for a read-out of living cells in per cent, often relative to untreated cells. For `CNC(=O)c1ccc2c(c1)C(=O)c1ccc(Nc3ccc(F)c(NC(=O)C4CC4)c3)cc1CC2` [Compound 2015], the remaining activity at 0.2 µM in data set [1] turned out to be 91.3%; in data set [6] (0.2 µM 2015, read-out: MEK1 residual activity) it was 105%; in data set [6] (MEK1, 0.2 µM, read-out: residual activity), 105%; in data set [7] (0.2 µM 2015, read-out: CAMK2A residual activity), 102%. The remaining activity at 1 µM is 118% in data set [2]; 99.8% in data set [6] (1 µM 2015, read-out: MEK1 residual activity); 99.8% in data set [6] (MEK1, 1 µM, read-out: residual activity); 96.4% in data set [7] (1 µM 2015, read-out: CAMK2A residual activity); 96.4% in data set [7] (CAMK2A, 1 µM, read-out: residual activity). The “p38α–MK2-mediated phosphorylation of Wee1 at S642 (in words)” value in data set [3] is “blocked”. For the same molecule, in data set [4] (healthy human colon organoids SCC321, 2015 0,25 µM, ED Fig. 10g), the viability at 25 µM worked out at 105%. The viability at 5 µM in data set [4] (healthy human colon organoids SCC321, 2015 0, ED Fig. 10g) came to 109%. For the same molecule, in data set [4] (healthy human colon organoids SCC321, 2015 1 µM, ED Fig. 10g), the viability at 1 µM is 86.9%. The “Cell viability (%)” value in data set [5] (2015 0,5 µM, 5 µM) is 115.51% and 112.50%; in data set [5] (2015 0,25 µM, 25 µM), 100.29% and 98.19%; in data set [5] (2015 1 µM) it was 83.04% and 75.31%. Further, the “response of healthy human colon culture (in words)” value in data set [5] (SCC321, 4 d) is on record as “only a very weak response”.
